For 26 compounds, Activity and inhibition results are on record in ChEMBL document CHEMBL2177032, “Shooting for selective druglike G-quadruplex binders: evidence for telomeric DNA damage and tumor cell death” (2012).

The structures appear in SMILES notation. Calls of active or inactive are those of the source. The calls are words filed in the database; no cut-off is given here.

In assay [1] the test system is Nucleic Acid. In words: Binding affinity to d(TGGGGT) quadruplex DNA by NMR analysis. In kind it is nucleic-acid assay.
In assay [2] the test system is BJ. In words: Induction of DNA damage in human BJ cells expressing hTERT and SV40 early region assessed as damaged foci colocalized with TRF1 at 0.1 to 0.5 uM after 24 hrs by deconvolution microscopy analysis. The format is functional, cell-based.
Assay [3] has as its system BJ. In words: Induction of DNA damage in human BJ cells expressing hTERT and SV40 early region at 0.5 uM after 24 hrs by immunofluorescence analysis. The format is functional, cell-based.
Assay [4] deals with BJ. In words: Induction of telomere damage in human BJ cells expressing hTERT and SV40 early region assessed as gammaH2AX/TRF1 colocalizations at 0.1 to 0.5 uM after 24 hrs by immunofluorescence analysis. The format is functional.
In assay [5] the test system is Nucleic Acid. In words: Binding affinity to d(TGGGGT) quadruplex DNA at compound/DNA ratio 4:1 by isothermal titration calorimetry analysis. In kind it is nucleic-acid assay.
Assay [6] relates to Nucleic Acid. In words: Binding affinity to d(TGGGGT) quadruplex DNA by chemical shift perturbation method. In kind it is nucleic-acid assay.
For assay [7], the system named is HeLa. Briefly: Cell cycle arrest in human HeLa cells assessed as accumulation at G2/M phase at 3.5 uM after 120 hrs by flow cytometry (reference value: 18%). In kind it is functional.
Assay [8] deals with HeLa. Briefly: Cell cycle arrest in human HeLa cells assessed as accumulation at G0-G1 phase at 3.5 uM after 24 hrs by flow cytometry (reference value: 57%). The format is functional.
For assay [9], the system named is HeLa. In words: Cell cycle arrest in human HeLa cells assessed as accumulation at S phase at 3.5 uM after 72 hrs by flow cytometry (reference value: 22%). In kind it is functional.
For assay [10], the system named is HeLa. Briefly: Induction of apoptosis in human HeLa cells at 3.5 uM after 96 hrs using Annexin V-FITC vs PI staining by flow cytometry (reference value: 5.3%). The format is functional.
Assay [11] concerns HeLa. Briefly: Cell cycle arrest in human HeLa cells assessed as accumulation at G2/M phase at 3.5 uM after 96 hrs by flow cytometry (reference value: 11%). In kind it is functional.
In assay [12] the test system is HeLa. In words: Cell cycle arrest in human HeLa cells assessed as accumulation at S phase at 3.5 uM after 120 hrs by flow cytometry (reference value: 31%). In kind it is functional.
The test system of assay [13] is HeLa. In words: Cell cycle arrest in human HeLa cells assessed as accumulation at G0-G1 phase at 3.5 uM after 72 hrs by flow cytometry (reference value: 64%). In kind it is functional.
Assay [14] has as its system HeLa. In words: Cell cycle arrest in human HeLa cells assessed as accumulation at S phase at 3.5 uM after 24 hrs by flow cytometry (reference value: 27%). In kind it is functional.
In assay [15] the test system is HeLa. Briefly: Cytotoxicity against human HeLa cells assessed as decrease in cell survival. The format is functional, cell-based.
Assay [16] deals with HeLa. Briefly: Cell cycle arrest in human HeLa cells assessed as accumulation at sub-G1 phase at 3.5 uM after 96 hrs by flow cytometry (reference value: 6%). In kind it is functional.
In assay [17] the test system is HeLa. Briefly: Cell cycle arrest in human HeLa cells assessed as accumulation at S phase at 3.5 uM after 96 hrs by flow cytometry (reference value: 22%). The format is functional.
Assay [18] relates to HeLa. In words: Cell cycle arrest in human HeLa cells assessed as accumulation at G0-G1 phase at 3.5 uM after 96 hrs by flow cytometry (reference value: 67%). In kind it is functional.
The subject of assay [19] is HeLa. Briefly: Cell cycle arrest in human HeLa cells assessed as accumulation at sub-G1 phase at 3.5 uM after 72 hrs by flow cytometry (reference value: 5%). The format is functional.
The subject of assay [20] is HeLa. In words: Induction of apoptosis in human HeLa cells at 3.5 uM after 120 hrs using Annexin V-FITC vs PI staining by flow cytometry (reference value: 8.3%). The format is functional.
For assay [21], the system named is HeLa. Briefly: Cell cycle arrest in human HeLa cells assessed as accumulation at G2/M phase at 3.5 uM after 24 hrs by flow cytometry (reference value: 16%). The format is functional.
Assay [22] has as its system HeLa. Briefly: Cell cycle arrest in human HeLa cells assessed as accumulation at sub-G1 phase at 3.5 uM after 24 hrs by flow cytometry (reference value: 3%). In kind it is functional.
The test system of assay [23] is HeLa. In words: Induction of apoptosis in human HeLa cells at 3.5 uM after 24 hrs using Annexin V-FITC vs PI staining by flow cytometry (reference value: 3.8%). The format is functional.
For assay [24], the system named is HeLa. Briefly: Cell cycle arrest in human HeLa cells assessed as accumulation at G0-G1 phase at 3.5 uM after 120 hrs by flow cytometry (reference value: 51%). The format is functional.
Assay [25] concerns HeLa. Briefly: Induction of apoptosis in human HeLa cells at 3.5 uM after 72 hrs using Annexin V-FITC vs PI staining by flow cytometry (reference value: 3.9%). In kind it is functional.
Assay [26] has as its system HeLa. In words: Cell cycle arrest in human HeLa cells assessed as accumulation at G2/M phase at 3.5 uM after 72 hrs by flow cytometry (reference value: 14%). In kind it is functional.
For assay [27], the system named is HeLa. Briefly: Cell cycle arrest in human HeLa cells assessed as accumulation at sub-G1 phase at 3.5 uM after 120 hrs by flow cytometry (reference value: 14%). The format is functional.
The subject of assay [28] is Nucleic Acid. In words: Displacement of distamycin-A from d(TGGGGT) quadruplex DNA at compound/DNA ratio 4:1 by isothermal titration calorimetry analysis. In kind it is nucleic-acid assay.

With `CC1CCN(Cc2c(O)ccc3c(=O)c(-c4nc5ccccc5s4)coc23)CC1`, the outcome with Nucleic Acid [1] was Active.

Turning to `CCN(CC)Cc1c(O)ccc2c(=O)c(-c3nc4ccccc4s3)coc12`, the result with BJ [2], in the assay on BJ [3], in the assay with Nucleic Acid [1] and in the assay with Nucleic Acid [5] was Active. Further, the Activity in the assay on BJ [4] is 50%.

Regarding `O=c1oc2c(CN3CCN(c4ccccc4)CC3)c(O)ccc2cc1-c1nc2ccccc2s1`, in the assay with Nucleic Acid [6], the result was inactive.

With `CCC1CCCCN1Cc1c(O)ccc2c(=O)c(-c3nc4ccccc4s3)coc12` (stereo unspecified), the outcome in the assay on Nucleic Acid [1] was Active.

With `O=c1c(-c2nc3ccccc3s2)coc2c(CN3CCOCC3)c(O)ccc12`, the outcome in the assay on Nucleic Acid [1] was Active.

For `CC1CCCN(Cc2c(O)ccc3c(=O)c(-c4nc5ccccc5s4)coc23)C1` (stereo unspecified), in the assay with Nucleic Acid [1], the outcome was Active.

As for `CCOC(=O)N1CCN(Cc2c(O)ccc3cc(-c4nc5ccccc5s4)c(=O)oc23)CC1`, the result in the assay on Nucleic Acid [6] was inactive.

In the case of `CC1CCCC(C)N1Cc1c(O)ccc2c(=O)c(-c3nc4ccccc4s3)c(N)oc12` (stereo unspecified), the Activity with HeLa [7] was 31%; in the assay with HeLa [8], 52%; in the assay on HeLa [9], 23%; with HeLa [10] it was 13.9%; in the assay with HeLa [11], 32%; in the assay on HeLa [12], 26%. Also, the Activity in the assay on HeLa [13] was determined as 40%; in the assay with HeLa [14], 28%; with HeLa [16], 19%; in the assay on HeLa [17], 28%; in the assay on HeLa [18], 40%; in the assay on HeLa [19] it was 12%. Besides, the Activity in the assay with HeLa [20] turned out to be 30.6%; in the assay on HeLa [21], 20%; with HeLa [22], 5%; with HeLa [23], 4.6%; in the assay with BJ [4], 50%; in the assay with HeLa [24], 43%. In addition, the results for the Activity in the assay on HeLa [25], in the assay with HeLa [26] and in the assay on HeLa [27] were 7.1%, 37% and 38%, respectively. Besides, the result with BJ [2], in the assay with BJ [3], in the assay with Nucleic Acid [1] and with Nucleic Acid [5] was Active. The inhibition entry with HeLa [15] was “Dose-dependent effect”.

Consider `CC1(C)C[C@H]2CN(Cc3c(O)ccc4c(=O)c(-c5nc6ccccc6s5)c(N)oc34)[C@](C)(C2)C1`, for which, in the assay with Nucleic Acid [1], the outcome was inactive.

With `CN1CCN(Cc2c(O)ccc3cc(-c4nc5ccccc5s4)c(=O)oc23)CC1`, in the assay on Nucleic Acid [6], the outcome was Active.

In the case of `CC1CCCCN1Cc1c(O)ccc2c(=O)c(-c3nc4ccccc4s3)coc12` (stereo unspecified), in the assay with Nucleic Acid [1], the result was Active.

Regarding `O=c1c(-c2nc3ccccc3s2)coc2c(CN3CCCC3)c(O)ccc12`, in the assay on Nucleic Acid [1], the outcome was Active.

For the compound `CCN1CCN(Cc2c(O)ccc3cc(-c4nc5ccccc5s4)c(=O)oc23)CC1`, the result with Nucleic Acid [6] was Active.

`CCc1cc2c(=O)c(-c3nc4ccccc4s3)coc2c(CN(CC)CC)c1O`: in the assay with Nucleic Acid [1], the result was inactive.

Take `CN(C)Cc1c(O)ccc2c(=O)c(-c3nc4ccccc4s3)coc12`: in the assay on Nucleic Acid [1], the result was Active.

In the case of `O=c1oc2c(CN3CCN(CCO)CC3)c(O)ccc2cc1-c1nc2ccccc2s1`, the result in the assay on Nucleic Acid [5] and in the assay on Nucleic Acid [28] was Active.

Turning to `Cc1oc2c(CN3CCCC3)c(O)ccc2c(=O)c1-c1nc2ccccc2s1`, the result in the assay on Nucleic Acid [1] was inactive.

For `Cc1oc2c(CN(C)C)c(O)ccc2c(=O)c1-c1nc2ccccc2s1`, in the assay on Nucleic Acid [1], the outcome was inactive.

Turning to `CC1CCCN(Cc2c(O)ccc3c(O)c(-c4nc5ccccc5s4)c(=N)oc23)C1` (stereo unspecified), the result in the assay on Nucleic Acid [1] was Active.

Turning to `CCc1cc2c(=O)c(-c3nc4ccccc4s3)coc2c(CN2CCCC2)c1O`, the outcome in the assay with Nucleic Acid [1] was inactive.

In the case of `CC1CCN(Cc2c(O)ccc3c(O)c(-c4nc5ccccc5s4)c(=N)oc23)CC1`, the outcome with Nucleic Acid [1] was Active.

As to `Cn1cc(NC(=O)c2cc(NC(=O)c3cc(NC=O)cn3C)cn2C)cc1C(=O)NCCC(=N)N`, the outcome with BJ [2] and in the assay on BJ [3] was Active.

As for `Nc1oc2c(CN3CCCCCC3)c(O)ccc2c(=O)c1-c1nc2ccccc2s1`, the result with BJ [2], in the assay with BJ [3], in the assay with Nucleic Acid [1] and in the assay on Nucleic Acid [5] was Active. The Activity in the assay on BJ [4] is recorded as 50%.

In the case of `O=c1c(-c2nc3ccccc3s2)coc2c(CN3CCCCC3)c(O)ccc12`, the outcome in the assay on Nucleic Acid [1] was Active.

Regarding `O=c1oc2c(CN(CCO)CCO)c(O)ccc2cc1-c1nc2ccccc2s1`, in the assay on Nucleic Acid [6], the outcome was Active.

Turning to `O=c1c(-c2nc3ccccc3s2)coc2cc(O)ccc12`, the outcome in the assay with Nucleic Acid [1] was inactive.
